Results taken from US7915276B2, “Berberrubine derivatives having antifungal activities” (priority 2006, dated 2011).

Tests used:
[1] = molecular target: T1, chitin synthase 1 of Candida albicans chs2 Δ chs 3 Δ (Candida albicans, UniProt P23316); assay: In vitro enzyme assay for chitin synthase 1 of Candida albicans (enzyme 1); assay type: biochemical; settings: relative to polyoxin D (50% inhibitory activity = value 5)
T1 construct: Crude enzyme was prepared using the Candida albicans chs2 Δ chs 3 Δ mutant; endogenous in cells; host or cells: Candida albicans chs2Δ/chs2Δ chs3Δ/chs3Δ mutant; 130,000 x g membrane pellet
T1 sequence (P23316 whole entry, stated change not applied): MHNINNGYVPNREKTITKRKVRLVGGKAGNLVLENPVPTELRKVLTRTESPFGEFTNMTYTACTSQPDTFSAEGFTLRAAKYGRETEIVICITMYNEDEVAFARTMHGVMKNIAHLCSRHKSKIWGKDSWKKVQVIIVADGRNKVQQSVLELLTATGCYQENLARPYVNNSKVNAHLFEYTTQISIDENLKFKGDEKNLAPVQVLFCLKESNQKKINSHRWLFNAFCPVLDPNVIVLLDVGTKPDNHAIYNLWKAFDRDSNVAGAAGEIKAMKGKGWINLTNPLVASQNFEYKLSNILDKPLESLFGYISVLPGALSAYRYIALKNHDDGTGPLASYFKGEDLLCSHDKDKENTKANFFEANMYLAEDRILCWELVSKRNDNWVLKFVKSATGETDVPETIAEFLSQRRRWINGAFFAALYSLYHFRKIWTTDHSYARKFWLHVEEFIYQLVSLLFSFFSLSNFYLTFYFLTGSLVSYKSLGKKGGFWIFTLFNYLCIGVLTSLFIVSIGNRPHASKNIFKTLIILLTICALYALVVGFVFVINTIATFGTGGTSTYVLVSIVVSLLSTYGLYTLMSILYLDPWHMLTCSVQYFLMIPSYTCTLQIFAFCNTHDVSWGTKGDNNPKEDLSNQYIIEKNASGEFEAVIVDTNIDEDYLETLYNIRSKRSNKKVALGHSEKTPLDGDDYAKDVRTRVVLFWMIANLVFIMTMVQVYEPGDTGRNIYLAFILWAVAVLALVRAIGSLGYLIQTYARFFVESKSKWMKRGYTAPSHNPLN
How it was run: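 Trypsin-activated crude membrane chitin synthase 1 from C. albicans chs2Δ chs3Δ was incubated 90 min at 30 °C with 1.1 mM UDP-[14C]GlcNAc and 2 mM cobalt acetate in Tris-HCl pH 7.5. Filtered TCA precipitate was counted by scintillation; values are scores 1–8 against polyoxin D (5 = same concentration).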

[2] = molecular target: T2, chitin synthase 2 of Saccharomyces cerevisiae ECY38-38A(pAS6) (Saccharomyces cerevisiae, UniProt P14180); assay: In vitro enzyme assay for chitin synthase 2 of Saccharomyces cerevisiae (enzyme 2); assay type: biochemical; settings: relative to polyoxin D (50% inhibitory activity = value 5)
T2 construct: made in house; host or cells: Saccharomyces cerevisiae ECY38-38A (chs1-23 chs2::LEU2 cal1/csd2) carrying plasmid pAS6, grown in galactose medium; 130,000 x g membrane pellet
T2 sequence (P14180 whole entry): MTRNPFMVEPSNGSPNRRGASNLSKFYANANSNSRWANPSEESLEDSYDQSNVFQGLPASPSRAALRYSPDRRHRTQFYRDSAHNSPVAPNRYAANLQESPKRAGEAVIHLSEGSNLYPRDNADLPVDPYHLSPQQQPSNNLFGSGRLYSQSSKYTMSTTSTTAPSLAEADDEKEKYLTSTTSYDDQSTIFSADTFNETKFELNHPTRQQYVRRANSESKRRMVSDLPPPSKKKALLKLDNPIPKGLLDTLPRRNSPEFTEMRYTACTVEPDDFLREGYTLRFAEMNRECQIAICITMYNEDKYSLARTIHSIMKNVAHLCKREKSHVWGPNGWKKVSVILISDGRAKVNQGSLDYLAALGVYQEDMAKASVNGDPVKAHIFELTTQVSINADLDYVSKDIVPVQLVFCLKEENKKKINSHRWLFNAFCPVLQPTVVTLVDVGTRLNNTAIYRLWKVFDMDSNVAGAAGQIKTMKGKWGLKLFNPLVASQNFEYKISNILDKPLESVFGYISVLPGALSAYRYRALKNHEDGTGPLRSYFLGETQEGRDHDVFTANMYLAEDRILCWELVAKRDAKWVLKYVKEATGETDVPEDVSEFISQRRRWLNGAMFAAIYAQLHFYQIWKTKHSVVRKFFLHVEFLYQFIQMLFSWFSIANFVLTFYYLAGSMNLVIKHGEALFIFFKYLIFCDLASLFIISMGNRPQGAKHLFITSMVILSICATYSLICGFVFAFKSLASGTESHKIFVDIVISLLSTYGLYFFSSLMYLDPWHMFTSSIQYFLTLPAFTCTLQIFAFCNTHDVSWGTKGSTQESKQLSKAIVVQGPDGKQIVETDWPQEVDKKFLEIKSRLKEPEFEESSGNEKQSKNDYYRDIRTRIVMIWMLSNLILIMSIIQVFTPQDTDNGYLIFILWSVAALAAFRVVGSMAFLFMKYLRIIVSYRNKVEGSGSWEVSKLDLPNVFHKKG
How it was run: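 Values are scores: 5 means 50% inhibition at the same concentration as polyoxin D, lower scores 2- to 16-fold higher concentration, higher scores ½ to ⅛. Radiolabel from 1.1 mM UDP-[14C]-GlcNAc was incorporated into TCA-insoluble chitin over 90 min at 30 °C (pH 7.5 Tris, 2 mM Co2+). The enzyme was a trypsin-activated membrane fraction from CHS2-only S. cerevisiae ECY38-38A(pAS6).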

[3] = system: Aspergillus flavus ATCC 64025; assay: In vitro antifungal activity (MIC), NCCLS method; assay type: cell-based; settings: 48 hours
Description: (§1) Candida albicans ATCC 10231, Candida lusitaniae ATCC 42720, Candida krusei ATCC 6258, Candida tropicalis ATCC 13803, Candida glabrata ATCC 48435, Candida parapsilosis ATCC 34136, Cryptococcus neoformans ATCC 36556, Aspergillus fumigatus ATCC 16424, Aspergillus flavus ATCC 64025, Aspergillus terreus ATCC 46941 and Mucor ramosissimus ATCC 90286 strains for the MIC (minimum inhibitory concentration) measurement were obtained from ATCC (American Type Culture Collection) in the U.S. The Candida albicans A207(clinical isolate) strain was used by isolating it from the patients.
(§2) The determination of MIC was performed according to the NCCLS (National Committee for Clinical Laboratory Standard) method. Each test sample solution was diluted two-fold and inoculated with a fungal suspension to reach a final inoculum size of 5×10^2 to 2.5×10^3 cell/mL. The Cryptococcus neoformans strain was cultured in the RPMI 1640 medium for 72 hours. Other strains were cultured for 48 hours.

[4] = system: Aspergillus fumigatus ATCC 16424; assay: In vitro antifungal activity (MIC), NCCLS method; assay type: cell-based; settings: 48 hours
Description: as §1, §2

[5] = system: Aspergillus terreus ATCC 46941; assay: In vitro antifungal activity (MIC), NCCLS method; assay type: cell-based; settings: 48 hours
Description: as §1, §2

[6] = system: Candida albicans A207 (clinical isolate); assay: In vitro antifungal activity (MIC), NCCLS method; assay type: cell-based; settings: 48 hours
Description: as §1, §2

[7] = system: Candida albicans ATCC 10231; assay: In vitro antifungal activity (MIC), NCCLS method; assay type: cell-based; settings: 48 hours
Description: as §1, §2

[8] = system: Candida glabrata ATCC 48435; assay: In vitro antifungal activity (MIC), NCCLS method; assay type: cell-based; settings: Candida glabrata ATCC 48435; 48 hours
Description: as §1, §2

Candida krusei ATCC 6258 = assay: In vitro antifungal activity (MIC), NCCLS method; assay type: cell-based; settings: 48 hours
Description: as §1, §2

[9] = system: Candida lusitaniae ATCC 42720; assay: In vitro antifungal activity (MIC), NCCLS method; assay type: cell-based; settings: 48 hours
Description: as §1, §2

[10] = system: Candida parapsilosis ATCC 34136; assay: In vitro antifungal activity (MIC), NCCLS method; assay type: cell-based; settings: Candida parapsilosis ATCC 34136; 48 hours
Description: as §1, §2

[11] = system: Candida tropicalis ATCC 13803; assay: In vitro antifungal activity (MIC), NCCLS method; assay type: cell-based; settings: 48 hours
Description: as §1, §2

[12] = system: Cryptococcus neoformans ATCC 36556; assay: In vitro antifungal activity (MIC), NCCLS method; assay type: cell-based; settings: RPMI 1640 medium, 72 hours
Description: as §1, §2

[13] = system: Mucor ramosissimus ATCC 90286; assay: In vitro antifungal activity (MIC), NCCLS method; assay type: cell-based; settings: 48 hours
Description: as §1, §2

| Compound | Relative activity Enzyme 1 [1] | Relative activity Enzyme 2 [2] | MIC (minimum inhibitory concentration) [3] | MIC (minimum inhibitory concentration) [4] | MIC (minimum inhibitory concentration) [5] | MIC (minimum inhibitory concentration) [6] | MIC (minimum inhibitory concentration) [7] | MIC (minimum inhibitory concentration) [8] | MIC (minimum inhibitory concentration) (Candida krusei ATCC 6258) | MIC (minimum inhibitory concentration) [9] | MIC (minimum inhibitory concentration) [10] | MIC (minimum inhibitory concentration) [11] | MIC (minimum inhibitory concentration) [12] | MIC (minimum inhibitory concentration) [13] |
| --- | --- | --- | --- | --- | --- | --- | --- | --- | --- | --- | --- | --- | --- | --- |
| 13-(4-tert-Butylbenzyl)-9-O-(4-tert-butylbenzyl)berberrubine chloride [Compound No. 47] | 2 (Compounds having the inhibitory activity at 2-fold, 4-fold, 8-fold and 16-fold higher concentrations than that of polyoxin D were given the values of 4, 3, 2 and 1, respectively) | 5 (A compound having the same inhibitory activity as that of polyoxin D at the same concentration was given the value 5) | 8 µg/mL | 4 µg/mL | 8 µg/mL | 1 µg/mL | 1 µg/mL | 4 µg/mL | 4 µg/mL | 4 µg/mL | 8 µg/mL | 1 µg/mL | 2 µg/mL | 8 µg/mL |
| 13-(4-Isopropylbenzyl)-9-O-(3-hydroxypropyl)berberrubine iodide [Compound No. 21] | 3 (Compounds having the inhibitory activity at 2-fold, 4-fold, 8-fold and 16-fold higher concentrations than that of polyoxin D were given the values of 4, 3, 2 and 1, respectively) | 6 (compounds having the inhibitory activity at ½, ¼ and ⅛ lower concentrations than that of polyoxin D were given the values of 6, 7 and 8, respectively) | 8 µg/mL | 2 µg/mL | 8 µg/mL | 0.5 µg/mL | 0.5 µg/mL | 2 µg/mL | 1 µg/mL | 2 µg/mL | 2 µg/mL | 0.5 µg/mL | 1 µg/mL | 4 µg/mL |
| 13-(4-Isopropylbenzyl)-9-O-(4-tert-butylbenzyl)berberrubine chloride [Compound No. 57] | 2 (Compounds having the inhibitory activity at 2-fold, 4-fold, 8-fold and 16-fold higher concentrations than that of polyoxin D were given the values of 4, 3, 2 and 1, respectively) | 5 (A compound having the same inhibitory activity as that of polyoxin D at the same concentration was given the value 5) | 8 µg/mL | 4 µg/mL | 8 µg/mL | 1 µg/mL | 1 µg/mL | 4 µg/mL | 4 µg/mL | 4 µg/mL | 8 µg/mL | 1 µg/mL | 2 µg/mL | 8 µg/mL |
| 13-(4-tert-Butylbenzyl)-9-O-(4-isopropylbenzyl)berberrubine bromide [Compound No. 16] | 3 (Compounds having the inhibitory activity at 2-fold, 4-fold, 8-fold and 16-fold higher concentrations than that of polyoxin D were given the values of 4, 3, 2 and 1, respectively) | 5 (A compound having the same inhibitory activity as that of polyoxin D at the same concentration was given the value 5) | 8 µg/mL | 4 µg/mL | 8 µg/mL | 1 µg/mL | 1 µg/mL | 2 µg/mL | 2 µg/mL | 4 µg/mL | 8 µg/mL | 1 µg/mL | 2 µg/mL | 8 µg/mL |
| 13-(4-Isopropylbenzyl)-9-O-allylberberrubine chloride [Compound No. 55] | 3 (Compounds having the inhibitory activity at 2-fold, 4-fold, 8-fold and 16-fold higher concentrations than that of polyoxin D were given the values of 4, 3, 2 and 1, respectively) | 6 (compounds having the inhibitory activity at ½, ¼ and ⅛ lower concentrations than that of polyoxin D were given the values of 6, 7 and 8, respectively) | 8 µg/mL | 8 µg/mL | 8 µg/mL | 1 µg/mL | 1 µg/mL | 8 µg/mL | 2 µg/mL | 2 µg/mL | 4 µg/mL | 1 µg/mL | 2 µg/mL | 4 µg/mL |
| COc1ccc2c(Cc3ccc(C(C)C)cc3)c3[n+](cc2c1OCCCCCCCl)CCc1cc2c(cc1-3)OCO2.[I-] [Compound No. 22, 13-(4-Isopropylbenzyl)-9-O-(6-chlorohexyl)berberrubine iodide] | 2 (Compounds having the inhibitory activity at 2-fold, 4-fold, 8-fold and 16-fold higher concentrations than that of polyoxin D were given the values of 4, 3, 2 and 1, respectively) | 5 (A compound having the same inhibitory activity as that of polyoxin D at the same concentration was given the value 5) | 8 µg/mL | 2 µg/mL | 8 µg/mL | 0.5 µg/mL | 0.5 µg/mL | 2 µg/mL | 1 µg/mL | 2 µg/mL | 2 µg/mL | 0.5 µg/mL | 1 µg/mL | 4 µg/mL |
